Reference: BindingDB's records for doi:10.1021/jm801063n (University of Auckland, 2009)

Assay: Inhibition of recombinant perforin-mediated lysis of human Jurkat T cells by 51Cr release assay

IC50 [µM]	Structure (SMILES)
> 20	Cc1cc2c(c(=S)[nH]1)C(=O)O/C2=C\c1ccc(N(C)C)cc1 [(Z)-1-(4-(Dimethylamino)benzylidene)-6-methyl-4-thioxo-4,5-dihydrofuro[3,4-c]pyridin-3(1H)-one]
> 20	Cc1cc2c(c(=S)[nH]1)C(=O)O/C2=C\c1ccc(Cl)cc1 [(Z)-1-(4-Chlorobenzylidene)-6-methyl-4-thioxo-4,5-dihydrofuro[3,4-c]pyridin-3(1H)-one]
> 20	Cc1cc2c(c(=S)[nH]1)C(=O)O/C2=C\c1ccc(F)cc1 [(Z)-1-(4-Fluorobenzylidene)-6-methyl-4-thioxo-4,5-dihydrofuro[3,4-c]pyridin-3(1H)-one]
> 20	Cc1cc2c(c(=S)[nH]1)C(=O)O/C2=C\c1ncc[nH]1 [(Z)-1-((1H-Imidazol-2-yl)methylene)-6-methyl-4-thioxo-4,5-dihydrofuro[3,4-c]pyridin-3(1H)-one]
1.3	Cc1cc2c(c(=S)[nH]1)C(=O)O/C2=C\c1cc2ccccc2[nH]1 [(Z)-1-((1H-Indol-2-yl)methylene)-6-methyl-4-thioxo-4,5-dihydrofuro[3,4-c]pyridin-3(1H)-one]
> 20	Cc1cc2c(c(=S)[nH]1)C(=O)O/C2=C\c1c[nH]c2ccccc12 [(Z)-1-((1H-Indol-3-yl)methylene)-6-methyl-4-thioxo-4,5-dihydrofuro[3,4-c]pyridin-3(1H)-one]
4.1	Cc1cc2c(c(=S)[nH]1)C(=O)O/C2=C\c1cccc2cc[nH]c12 [(Z)-1-((1H-Indol-7-yl)methylene)-6-methyl-4-thioxo-4,5-dihydrofuro[3,4-c]pyridin-3(1H)-one]
> 20	Cc1cc2c(c(=S)[nH]1)C(=O)O/C2=C\c1ccc[nH]1 [(Z)-1-((1H-Pyrrol-2-yl)methylene)-6-methyl-4-thioxo-4,5-dihydrofuro[3,4-c]pyridin-3(1H)-one]
> 20	Cc1cc2c(c(=O)[nH]1)C(=O)O/C2=C\c1ccc[nH]1 [(Z)-1-((1H-Pyrrol-2-yl)methylene)-6-methylfuro[3,4-c]pyridine-3,4(1H,5H)-dione]
6.7	COc1cccc2oc(/C=C3\OC(=O)c4c3cc(C)[nH]c4=S)cc12 [(Z)-1-((4-Methoxybenzofuran-2-yl)methylene)-6-methyl-4-thioxo-4,5-dihydrofuro[3,4-c]pyridin-3(1H)-one]
> 20	Cc1cc2c(c(=S)[nH]1)C(=O)O/C2=C\c1cc2cc(OCc3ccccc3)ccc2[nH]1 [(Z)-1-((5-(Benzyloxy)-1H-indol-2-yl)methylene)-6-methyl-4-thioxo-4,5-dihydrofuro[3,4-c]pyridin-3(1H)-one]
7.5	Cc1cc2c(c(=S)[nH]1)C(=O)O/C2=C\c1csc2ccc(Br)cc12 [(Z)-1-((5-Bromobenzo[b]thiophen-3-yl)methylene)-6-methyl-4-thioxo-4,5-dihydrofuro[3,4-c]pyridin-3(1H)-one]
4.6	COc1ccc2[nH]c(/C=C3\OC(=O)c4c3cc(C)[nH]c4=S)cc2c1 [(Z)-1-((5-Methoxy-1H-indol-2-yl)methylene)-6-methyl-4-thioxo-4,5-dihydrofuro[3,4-c]pyridin-3(1H)-one]
13.1	COc1ccc2sc(/C=C3\OC(=O)c4c3cc(C)[nH]c4=S)cc2c1 [(Z)-1-((5-Methoxybenzo[b]thiophen-2-yl)methylene)-6-methyl-4-thioxo-4,5-dihydrofuro[3,4-c]pyridin-3(1H)-one]
5.1	COc1ccc2scc(/C=C3\OC(=O)c4c3cc(C)[nH]c4=S)c2c1 [(Z)-1-((5-Methoxybenzo[b]thiophen-3-yl)methylene)-6-methyl-4-thioxo-4,5-dihydrofuro[3,4-c]pyridin-3(1H)-one]
2.4	COc1ccc2oc(/C=C3\OC(=O)c4c3cc(C)[nH]c4=S)cc2c1 [(Z)-1-((5-Methoxybenzofuran-2-yl)methylene)-6-methyl-4-thioxo-4,5-dihydrofuro[3,4-c]pyridin-3(1H)-one]
> 20	COc1cc2cc(/C=C3\OC(=O)c4c3cc(C)[nH]c4=S)[nH]c2cc1OCc1ccccc1 [(Z)-1-((6-(Benzyloxy)-5-methoxy-1H-indol-2-yl)methylene)-6-methyl-4-thioxo-4,5-dihydrofuro[3,4-c]pyridin-3(1H)-one]
5.1	COc1cc2cc(/C=C3\OC(=O)c4c3cc(C)[nH]c4=S)oc2cc1OCc1ccccc1 [(Z)-1-((6-(Benzyloxy)-5-methoxybenzofuran-2-yl)methylene)-6-methyl-4-thioxo-4,5-dihydrofuro[3,4-c]pyridin-3(1H)-one]
3.1	COc1ccc2cc(/C=C3\OC(=O)c4c3cc(C)[nH]c4=S)[nH]c2c1 [(Z)-1-((6-Methoxy-1H-indol-2-yl)methylene)-6-methyl-4-thioxo-4,5-dihydrofuro[3,4-c]pyridin-3(1H)-one]
5.4	COc1ccc2cc(/C=C3\OC(=O)c4c3cc(C)[nH]c4=S)sc2c1 [(Z)-1-((6-Methoxybenzo[b]thiophen-2-yl)methylene)-6-methyl-4-thioxo-4,5-dihydrofuro[3,4-c]pyridin-3(1H)-one]
4.7	COc1ccc2c(/C=C3\OC(=O)c4c3cc(C)[nH]c4=S)csc2c1 [(Z)-1-((6-Methoxybenzo[b]thiophen-3-yl)methylene)-6-methyl-4-thioxo-4,5-dihydrofuro[3,4-c]pyridin-3(1H)-one]
7.2	COc1ccc2cc(/C=C3\OC(=O)c4c3cc(C)[nH]c4=S)oc2c1 [(Z)-1-((6-Methoxybenzofuran-2-yl)methylene)-6-methyl-4-thioxo-4,5-dihydrofuro[3,4-c]pyridin-3(1H)-one]

IC50 [µM]	Structure (SMILES)
3	COc1cccc2cc(/C=C3\OC(=O)c4c3cc(C)[nH]c4=S)oc12 [(Z)-1-((7-Methoxybenzofuran-2-yl)methylene)-6-methyl-4-thioxo-4,5-dihydrofuro[3,4-c]pyridin-3(1H)-one]
9.5	Cc1cc2c(c(=S)[nH]1)C(=O)O/C2=C\c1cc2ccccc2s1 [(Z)-1-(Benzo[b]thiophen-2-ylmethylene)-6-methyl-4-thioxo-4,5-dihydrofuro[3,4-c]pyridin-3(1H)-one]
4.6	Cc1cc2c(c(=O)[nH]1)C(=O)O/C2=C\c1cc2ccccc2s1 [(Z)-1-(Benzo[b]thiophen-2-ylmethylene)-6-methylfuro[3,4-c]pyridine-3,4(1H,5H)-dione]
8.5	Cc1cc2c(c(=O)[nH]1)C(=O)O/C2=C\c1csc2ccccc12 [(Z)-1-(Benzo[b]thiophen-3-ylmethylene)-6-methylfuro[3,4-c]pyridine-3,4(1H,5H)-dione]
8.2	Cc1cc2c(c(=S)[nH]1)C(=O)O/C2=C\c1cc2ccccc2o1 [(Z)-1-(Benzofuran-2-ylmethylene)-6-methyl-4-thioxo-4,5-dihydrofuro[3,4-c]pyridin-3(1H)-one]
> 20	Cc1cc2c(c(=S)[nH]1)C(=O)O/C2=C\c1coc2ccccc12 [(Z)-1-(Benzofuran-3-ylmethylene)-6-methyl-4-thioxo-4,5-dihydrofuro[3,4-c]pyridin-3(1H)-one]
> 20	Cc1cc2c(c(=S)[nH]1)C(=O)O/C2=C\c1ccc(-c2ccccc2)cc1 [(Z)-1-(Biphenyl-4-ylmethylene)-6-methyl-4-thioxo-4,5-dihydrofuro[3,4-c]pyridin-3(1H)-one]
4.4	Cc1cc2c(c(=S)[nH]1)C(=O)O/C2=C\c1ccco1 [(Z)-1-(Furan-2-ylmethylene)-6-methyl-4-thioxo-4,5-dihydrofuro[3,4-c]pyridin-3(1H)-one]
> 20	Cc1cc2c(c(=S)[nH]1)C(=O)O/C2=C\c1ccoc1 [(Z)-1-(Furan-3-ylmethylene)-6-methyl-4-thioxo-4,5-dihydrofuro[3,4-c]pyridin-3(1H)-one]
> 20	Cc1cc2c(c(=S)[nH]1)C(=O)O/C2=C\c1ccccc1 [(Z)-1-Benzylidene-6-methyl-4-thioxo-4,5-dihydrofuro[3,4-c]pyridin-3(1H)-one]
3.8	COc1cccc2scc(/C=C3\OC(=O)c4c3cc(C)[nH]c4=S)c12 [(Z)-1-[(4-Methoxy-1-benzothien-3-yl)methylene]-6-methyl-4-thioxo-4,5-dihydrofuro[3,4-c]pyridine-3(1H)-one]
> 20	CSc1ccc(/C=C2\OC(=O)c3c2cc(C)[nH]c3=S)cc1 [(Z)-6-Methyl-1-(4-(methylthio)benzylidene)-4-thioxo-4,5-dihydrofuro[3,4-c]pyridin-3(1H)-one]
> 20	Cc1ccc(/C=C2\OC(=O)c3c2cc(C)[nH]c3=S)cc1 [(Z)-6-Methyl-1-(4-methylbenzylidene)-4-thioxo-4,5-dihydrofuro[3,4-c]pyridin-3(1H)-one]
> 20	Cc1cc2c(c(=S)[nH]1)C(=O)O/C2=C\c1cc2ccccc2n1C [(Z)-6-Methyl-1-((1-methyl-1H-indol-2-yl)methylene)-4-thioxo-4,5-dihydrofuro[3,4-c]pyridin-3(1H)-one]
4.3	Cc1cc2c(c(=S)[nH]1)C(=O)O/C2=C\c1cn(C)c2ccccc12 [(Z)-6-Methyl-1-((1-methyl-1H-indol-3-yl)methylene)-4-thioxo-4,5-dihydrofuro[3,4-c]pyridin-3(1H)-one]
> 20	Cc1cc2c(c(=O)[nH]1)C(=O)O/C2=C\c1cn(C)c2ccccc12 [(Z)-6-Methyl-1-((1-methyl-1H-indol-3-yl)methylene)furo[3,4-c]pyridine-3,4(1H,5H)-dione]
> 20	Cc1cc2c(c(=S)[nH]1)C(=O)O/C2=C\c1cccn1C [(Z)-6-Methyl-1-((1-methyl-1H-pyrrol-2-yl)methylene)-4-thioxo-a4,5-dihydrofuro[3,4-c]pyridin-3(1H)-one]
> 20	Cc1cc2c(c(=O)[nH]1)C(=O)N/C2=C\c1ccc(C)o1 [(Z)-6-Methyl-1-((5-methylfuran-2-yl)methylene)-1H-pyrrolo[3,4-c]pyridine-3,4(2H,5H)-dione]
> 20	Cc1cc2c(c(=O)[nH]1)C(=O)O/C2=C\c1ccc(C)o1 [(Z)-6-Methyl-1-((5-methylfuran-2-yl)methylene)furo[3,4-c]pyridine-3,4(1H,5H)-dione]
7.2	Cc1cc2c(c(=S)[nH]1)C(=O)O/C2=C\c1ccc(C)s1 [(Z)-6-Methyl-1-((5-methylthiophen-2-yl)methylene)-4-thioxo-4,5-dihydrofuro[3,4-c]pyridin-3(1H)-one]
4	Cc1cc2c(c(=S)[nH]1)C(=O)O/C2=C\c1ccc(-c2ccccc2)o1 [(Z)-6-Methyl-1-((5-phenylfuran-2-yl)methylene)-4-thioxo-4,5-dihydrofuro[3,4-c]pyridin-3(1H)-one]
